According to PMC4823954, “From fighting depression to conquering tumors: a novel tricyclic thiazepine compound as a tubulin polymerization inhibitor” (Cell Death & Disease, 2016):

Tests used:
[1] = molecular target: T1, FLT3(D835Y) (Homo sapiens, UniProt P36888, D835Y); assay: KINOMEscan; type: binding; details: read-out: % Ctrl
T1 construct: purchased DiscoveRx KINOMEscan

[2] = parallel artificial membrane permeability assay (PAMPA); type: in vitro ADME
Description: As in vivo investigations are generally time consuming and expensive, it is advantageous to eliminate those compounds that are not suitable for animal experiments. One of the necessary steps is to screen the initial hits using assays testing their possible behaviors in vivo. To evaluate the drug-like properties of TBPT, a panel of in vitro assays was preformed (Table 1). The parallel artificial membrane permeability assay (PAMPA) was used to evaluate the cell permeability of the compounds. Compounds with a Pe >[…] are classified as highly permeable. […] The Caco-2 assay was used to predict the oral absorption values of the compounds in vivo. Compounds with a Caco-2 efflux ratio >2 may be subject to active efflux and should not be developed further. […] The half-life (T1/2) in human liver microsomes is used to predict the metabolism properties of compounds in vivo. […] A very long T1/2 (>24 h) increases the risk of cumulative toxicity and is not desirable. […] T1/2 in plasma indicates the stability of the drug in human blood; the high T1/2 values of these compounds indicated better stability in vivo. Plasma protein binding influences the distribution of drugs into body tissues, and compounds with high plasma protein binding (>99%) are limited in terms of the amount of free compound that are available to act on the targeted tissue. […]

[3] = tested on: H460; assay: Immunofluorescence staining for microtubule structure; type: cell-based, human; details: H460, 2 μM, 24 h
Experimental: (§1) The cells were washed in PBS and then fixed in paraformaldehyde (4% v/v) for 10 min. After the cells were washed three times in PBS, they were blocked with 5% (w/v) BSA for 30 min at RT. Then, α-tubulin antibody (CST, Beverly, MA, USA) was incubated with cells in a humid chamber overnight at 4 °C. After the cells were washed three times in PBS, they were incubated with goat anti-rabbit IgG-FITC (Jackson ImmunoResearch, West Grove, PA, USA) for 1 h at 37 °C. Then, the cells were mounted with mounting medium containing DAPI (Vector Lab, Peterborough, UK) after they were washed three times in PBS. Finally, the cells were observed and imaged using a fluorescence microscope (Olympus IX71, Tokyo, Japan).

[4] = tested on: H460TaxR; assay: as above; type: cell-based, human; details: 2 μM, 24 h
Experimental: as §1

[5] = mouse, in vivo
Experimental: Five injections of vehicle and TBPT (30 or 60 mg/kg) were administered intravenously at days 1, 3, 5, 7 and 9 (arrows). Four injections of PTX (10 mg/kg) were administered intravenously at days 1, 3, 5 and 7. (a) The tumor volume was measured every other day. When the tumor volume in the solvent-treated group exceeded 1500 mm^3, the experiment was terminated. (b) Blood biochemical and hematological analyses. (c) The body weights of the mice were monitored every other day during the experiments. *P<0.05, Student's t-test with day 0, N=5
Figure 3 Histopathological examination of the major organs from TBPT or PTX-treated mouse tumor at the end of the experiments. The cross-sections of organs were stained with hematoxylin–eosin. […] The scale bars represent 50 μm and are uniform in each column
H460 and H460TaxR cells (5 × 10^6 cells in 100 μl PBS) were injected subcutaneously into the dorsal flank of each mouse. When the tumors reached volumes of 100 mm^3, the mice were divided randomly into four groups. The mice were treated every other day five times with intravenous injections of (1) vehicle (the solvent of TBPT: 60% PBS, 8% Cremophor EL, 8% EtOH, 12% poly propylene glycol and 12% PEG-400), (2) TBPT (30 mg/kg) or (3) TBPT (60 mg/kg). Another group was treated with PTX (10 mg/kg) every other day four times as the positive control. The tumor dimensions and body weights were measured every other day. The tumor volume was calculated according to a standard formula: volume=width^2 × length/2. The experiment was terminated and the mice were killed when the tumor volumes in the solvent-treated group exceeded 1500 mm^3. The mouse organs and blood were collected and used for hematoxylin–eosin staining and serum chemistry assay. TGI rates were assessed using the following formula: TGI=1− (Tt−T0)/(Ct−C0) × 100%. Tt and T0 indicate the tumor volumes of the treated group at days t and 0. Ct and C0 indicate the tumor volumes of the control group at days t and 0, respectively.

Cc1ccc(C2=Nc3cccnc3S(=O)(=O)c3ccccc32)cc1 [TBPT, 6-(p-tolyl)benzo[f] pyrido[2,3-b][1,4] thiazepine 11,11-dioxide]
remaining binding at 5 µM ([1]; 5 μM): 92%
remaining binding at 10 µM ([1]; 10 μM): 100%
PAMPA Pe [2]: 1081.1±30.2 10^−6cm/s
microtubule organization in live cells [3]: disordered microtubule fragments
microtubule organization in live cells [4]: disordered microtubule fragments
histopathological examination of the major organs [5]: No pathological changes were observed
